US20070004633A1, “Use of peptidic conjugates for preparing compositions for alopecia preventive and curative treatment” (priority 2003, published 2007)
Lipoyl = N-lipoyl

System: anagen-phase hair follicles of mouse vibrissae
Experiment: Growth of mouse vibrissae in vitro (anagen-phase hair follicle culture, technique of Philpott)
Format: cell-based
Design: unit not given here
Conditions: peptide 10^−7 M, cultured mouse vibrissae follicles
Method: Effects of the Various Peptides on the Growth of Mouse Vibrissae In Vitro
In order to show the stimulatory effect of the peptides on hair growth, anagen-phase hair follicles of mouse vibrissae are cultured according to the technique described by Philpott (Philpott et al. 1994, Human Hair growth in vitro: a model for the study of hair biology. Journal of dermatological science 7; S55-S72). The growth of the hair follicle shaft was followed for several days (D0 to D4). The results are reported in the table below for the peptides R, S and V described above.

Ac-Lys-Gly-His-Lys-NH2 (Ac-KGHK-NH2) [Peptide V]
growth of the hair follicle shaft (D0): 0.00
growth of the hair follicle shaft (D1): 0.86
growth of the hair follicle shaft (D2): 1.34
growth of the hair follicle shaft (D3): 1.65
growth of the hair follicle shaft (D4): 1.65

Lipoyl-Lys-Gly-His-Lys-NH2 (Lipoyl-KGHK-NH2) [Peptide S]
growth of the hair follicle shaft (D0): 0.00
growth of the hair follicle shaft (D1): 0.77
growth of the hair follicle shaft (D2): 1.47
growth of the hair follicle shaft (D3): 1.72
growth of the hair follicle shaft (D4): 1.86

H-Gly-His-Lys-OH [Peptide R]
growth of the hair follicle shaft (D0): 0.00
growth of the hair follicle shaft (D1): 0.8
growth of the hair follicle shaft (D2): 1.27
growth of the hair follicle shaft (D3): 1.38
growth of the hair follicle shaft (D4): 1.38
